# Reference: patent US11452686B2, “Cosmetic active substance obtained through bioconversion by Lactobacillus arizonensis of its original substrate, method for obtaining same composition comprising same, and uses” (SOCIETE INDUSTRIELLE LIMOUSINE D'APPLICATION BIOLOGIQUE, priority 2019, dated 2022)
# Assays:
# Format in all cases: cell-based
# [1] = tested on: filaggrin; test: Filaggrin synthesis by immunostaining on normal human keratinocytes subjected to a dry environment
# Description: Thus, the use of an active substance according to the invention makes it possible to restore the epidermal differentiation process in order to obtain a cohesive structure. The second study on the keratinocytes makes it possible to compare the effect of the products of the various examples 1 to 5. To do this, their capacity to restore the synthesis of filaggrin by human keratinocytes subjected to a dry environment is compared. This study was carried out by immunocytology on normal human keratinocytes subjected to a dry environment. The procedure is as follows:
# Normal human keratinocytes are seeded and incubated at 37° C. in an atmosphere containing 5% CO2 for several days.
# Then, the keratinocytes are either incubated at 37° C. under 5% CO2 in an environment of 40% relative humidity in order to mimic a dry environment, or they are kept in an environment that is saturated with humidity (82% relative humidity) in the presence or absence of the products of examples 1 to 5 or in the presence of a sodium lactate solution at 45 g/L (pH 5.4).
# After 24 h, immunostaining is performed using an anti-filaggrin primary antibody and a coupled secondary antibody, Alexa Flor® 488.
# The nuclei are stained with a DAPI solution.
# Viewing is performed using an IX 70 microscope (Olympus) coupled to an image analysis system (NIS-Elements software, Nikon).
# The synthesized filaggrin is proportional to the intensity of green fluorescence present on the keratinocytes. A quantitative analysis of the images was performed using Matlab® software. The results are expressed in arbitrary units (AU) in Table 6 (Effect of the various examples on their ability to restore the synthesis of filaggrin in human keratinocytes subjected to water stress).
# [2] = tested on: Collagen I; test: Collagen I mRNA expression by quantitative PCR on normal human fibroblasts; details: 10 ng/mL (positive control)
# Description: (§1) This study was carried out by PCR on normal human fibroblasts.
# (§2) I. Culturing and Treatment of Fibroblasts: • Normal human fibroblasts are inoculated into a culture medium and then incubated at 37° C. in an atmosphere containing 5% CO2. • Then, the fibroblasts are cultured in the presence or absence of the active substance of example 1 at 0.5% and 1% (V/V).
# (§3) TGF-β at 10 ng/mL is used as a positive control. Finally, the fibroblasts are recovered and the total RNAs extracted.
# (§4) The RNAs were reverse-transcribed, and the complementary DNAs obtained were analyzed by the quantitative PCR technique. The mRNAs of the RPS18 protein, internal reference control, were analyzed in parallel with the mRNAs of Coll I, Coll III, Coll IV, Coll VII and HAS-2.
# (§5) The quantification of the incorporation of fluorescence (SYBR Green) is measured continuously using a thermal cycler. The RQ (relative quantification) analysis is performed using software.
# [3] = tested on: Collagen III; test: Collagen III mRNA expression by quantitative PCR on normal human fibroblasts; details: 10 ng/mL (positive control)
# Description: as §1, §2, §3, §4, §5
# [4] = tested on: Collagen IV; test: Collagen IV mRNA expression by quantitative PCR on normal human fibroblasts; details: 10 ng/mL (positive control)
# Description: as §1, §2, §3, §4, §5
# [5] = tested on: Collagen VII; test: Collagen VII mRNA expression by quantitative PCR on normal human fibroblasts; details: 10 ng/mL (positive control)
# Description: as §1, §2, §3, §4, §5
# [6] = tested on: HAS-2 (hyaluronan synthase 2); test: HAS-2 mRNA expression by quantitative PCR on normal human fibroblasts; details: 10 ng/mL (positive control)
# Description: as §1, §2, §3, §4, §5
Compound,Restoration of filaggrin synthesis (in words) ([1]; human keratinocytes subjected to water stress),"Synthesis of filaggrin ([1]; keratinocytes, water stress (40% relative humidity), 24 h, product at 0.5%) [AU]","Ability to restore filaggrin synthesis ([1]; keratinocytes, water stress, product at 0.5%) [%]",Collagen I Efficacy/control [2],Collagen I Expression [2] [%],Collagen III Efficacy/control [3],Collagen III Expression [3] [%],Collagen IV Efficacy/control [4],Collagen IV Expression [4] [%],Collagen VII Efficacy/control [5],Collagen VII Expression [5] [%],HAS-2 Expression [6] [%]
CC(O)C(=O)[O-].[Na+] (stereo not drawn) [Sodium lactate],does not restore filaggrin synthesis,909,7,–,–,–,–,–,–,–,–,–
TGF-β,–,–,–,+126%,226,+39%,139,+218%,318,+234%,334,78
